Measurements as given in US4503068A, “Use of prostaglandin analogues to treat cytodamage” (priority 1982, dated 1985).
Like-named read-outs stand apart in the source and are kept apart here.

Columns and labels:
[1] = test system: carbon tetrachloride-induced liver cell necrosis; details: in vivo; cited from earlier work
[2] = test system: acute galactosamine-induced liver damage; details: in vivo; cited from earlier work
[3] = test system: carbon tetrachloride (CCl4) induced liver damage; assay: Effect on carbon tetrachloride (CCl4) induced liver damage (liver cell necrosis type); assay type: in vivo, Male Wistar rats; details: Rattus norvegicus; for inhibition in vivo at 2 mg/kg: 2000 μg/kg 6 and 12 hr after CCl4; for inhibition in vivo at 0.05 mg/kg: 50 μg/kg 6 and 12 hr after CCl4; for inhibition in vivo at 0.1 mg/kg: 100 μg/kg 6 and 12 hr after CCl4; for inhibition in vivo at 0.5 mg/kg: 500 μg/kg 6 and 12 hr after CCl4; for inhibition in vivo at 0.02 mg/kg: 20 μg/kg 6 and 12 hr after CCl4; for inhibition in vivo at 1 mg/kg: 1000 μg/kg 6 and 12 hr after CCl4
Procedure: Effect on carbon tetrachloride (CCl4) induced liver damage (liver cell necrosis type)
Male Wistar rats weighing 180-220 g were used. Rats were dosed intraperitoneally with CCl4 dissolved in olive oil (5% w/v) at a volume of 500 μl/kg after 18 hr starvation. The compound under test was administered orally (p.o.) or subcutaneously (s.c.) 6 and 12 hr after CCl4 injection in rats and blood was collected after 24 hr. Plasma glutamic oxaloacetic transaminase (GOT) and glutamic pyruvic transaminase (GPT) activities were determined by ultraviolet absorbance methods (optimised method based on the recommendations of the Deutsche Gesellschaft f/u/ r Klinische Chemie). The effects of the compounds tested were assessed by the inhibition rate in comparison with controls. Inhibition rate was calculated by the following formula. [formula]
(§1) In Tables 1 to 4 hereinafter the dose shown is the amount given at each administration of the compound under test.

[4] = test system: α-naphthylisothiocyanate-induced liver damage; assay: Effect on α-naphthylisothiocyanate-induced liver damage (cholangioatresia type); assay type: in vivo, Male Wistar rats; details: p.o., blood after 24 hr
Procedure: as §1
Effect on α-naphthylisothiocyanate-induced liver damage (cholangioatresia type)
Male Wistar rats weighing 190-220 g were used. After rats had fasted for 18 hr, α-naphthylisothiocyanate (ANIT) dissolved in olive oil (1.5% w/v) was given orally to them at 30 mg/kg body weight. The compound under test was administered orally 30 min before and 6 and 12 hr after administration of ANIT and blood was collected after 24 hr. Plasma GOT, GPT and bilirubin activities were determined and the results given in Table 3 show the inhibition rate compared with controls (calculation by the formula shown in Experiment 1).

[5] = in vivo; details: mouse, mice, oral, observed for 14 days
Procedure: Male JCL-ICR mice (non SPF mice) from 7 weeks of age were used. The compound under test was dissolved in 5% v/v ethanol containing 0.4% w/v Tween 80 (Tween is a registered trademark) and administered orally to the mice.

[6] = test system: D(+)-galactosamine hydrochloride-induced liver damage; assay: Effect on D(+)-galactosamine hydrochloride-induced liver damage (hepatitis type); assay type: in vivo, Male Wistar rats; details: p.o.
Procedure: as §1
Effect on D(+)-galactosamine hydrochloride-induced liver damage (hepatitis type)
Male Wistar rats weighing 180-200 g were used. After the rats had fasted for 18 hr, 375 mg/kg galactosamine hydrochloride was administered to them intraperitoneally two times at 6 hr intervals. The compound under test was administered orally, 30 minutes before and, 6, 12 and 24 hr after the dose of D(+)-galactosamine hydrochloride and blood was collected after 24 and 48 hr. Plasma GOT and GPT activities were determined in the manner described in Experiment 1; plasma bilirubin activities were also determined. The effects were shown by the inhibition rate compared with controls (calculation by the formula shown in Experiment 1).

[7] = test system: isolate perfused cat liver; details: cited from earlier work
[8] = test system: ischemic myocardial tissue; details: cat; cited from earlier work
[9] = test system: endotoxin shock; details: dog; cited from earlier work
[10] = test system: endotoxin-induced lung injury; details: sheep; cited from earlier work
[11] = test system: diet-induced acute pancreatitis; details: mice; cited from earlier work
[12] = po, plasma GOT after 24 hr, read-out: inhibition rate, GOT
[13] = po, plasma GPT after 24 hr, read-out: inhibition rate, GPT
[14] = sc, plasma GOT after 24 hr, read-out: inhibition rate, GOT
[15] = sc, plasma GPT after 24 hr, read-out: inhibition rate, GPT

Structure (SMILES): CCCCC(C)(C)[C@H](O)/C=C/[C@H]1[C@H](O)CC(=O)[C@@H]1C/C=C\CCCC(=O)O [16,16-dimethyl-PGE2]
- prevention of carbon tetrachloride-induced liver cell necrosis [1]: prevents
- prevention of acute galactosamine-induced liver damage [2]: prevents

Structure (SMILES): OCCCCC[C@H]1C[C@@H]2[C@@H](/C=C/[C@@H](O)C3CCCC3)[C@H](O)C[C@@H]2O1 [Compound 12, 15-cyclopentyl-16,17,18,19,20-pentanor-6S-PGI1 alcohol]
- inhibition in vivo at 2 mg/kg [3, 12]: 7.4%
- inhibition in vivo at 2 mg/kg [3, 13]: 44.1%

Structure (SMILES): CCCC[C@H](C)C[C@H](O)/C=C/[C@H]1[C@H](O)CC(=O)[C@@H]1CC(=O)CCCCCO [Compound 5, 17S,20-dimethyl-6-oxo-PGE1 alcohol]
- inhibition, GOT ([4]; 100 μg/kg per administration): 54.1%
- inhibition, GPT ([4]; 100 μg/kg per administration): 53.1%
- inhibition, bilirubin ([4]; 100 μg/kg per administration): 41.7%
- LD50 at 336 h [5]: > 10 mg/kg
- inhibition in vivo at 0.05 mg/kg [3, 12]: 56.6%
- inhibition in vivo at 0.05 mg/kg [3, 13]: 59.1%

Structure (SMILES): CCCC[C@H](C)C[C@H](O)CC[C@H]1[C@H](O)CC(=O)[C@@H]1CC(=O)CCCCC(=O)OC [Compound 4, 17S,20-dimethyl-13,14-dihydro-6-oxo-PGE1 methyl ester]
- LD50 at 336 h [5]: > 10 mg/kg
- inhibition in vivo at 0.1 mg/kg [3, 12]: 52.1%
- inhibition in vivo at 0.1 mg/kg [3, 13]: 62.3%

Structure (SMILES): CCCC[C@H](C)C[C@H](O)/C=C/[C@@H]1[C@H]2C[C@H](CCCCC(=O)OC)O[C@H]2C[C@H]1O [Compound 6, 17S,20-dimethyl-6S-PGI1 methyl ester]
- inhibition, GOT ([4]; 2000 μg/kg per administration): 40.9%
- inhibition, GPT ([4]; 2000 μg/kg per administration): 44.6%
- inhibition, bilirubin ([4]; 2000 μg/kg per administration): 33.3%
- LD50 at 336 h [5]: > 50 mg/kg
- inhibition in vivo at 0.5 mg/kg [3, 14]: 55.3%
- inhibition in vivo at 0.5 mg/kg [3, 15]: 64.6%
- inhibition rate, GOT 24 hr after ([6]; 2000 μg/kg per administration): 50.2%
- inhibition rate, GPT 24 hr after ([6]; 2000 μg/kg per administration): 37.8%
- inhibition rate, bilirubin 24 hr after ([6]; 2000 μg/kg per administration): 31.8%
- inhibition rate, GOT 48 hr after ([6]; 2000 μg/kg per administration): 25.5%
- inhibition rate, GPT 48 hr after ([6]; 2000 μg/kg per administration): 21.4%
- inhibition rate, bilirubin 48 hr after ([6]; 2000 μg/kg per administration): 19.2%

Structure (SMILES): CCCC[C@H](C)[C@H](O)/C=C/[C@H]1[C@H](O)CC(=O)[C@@H]1CC(=O)CCCCC(=O)OC [Compound 1, 16S-methyl-6-oxo-PGE1 methyl ester]
- inhibition in vivo at 0.1 mg/kg [3, 12]: 59.9%
- inhibition in vivo at 0.1 mg/kg [3, 13]: 53.5%
- inhibition in vivo at 0.02 mg/kg [3, 14]: 27.8%
- inhibition in vivo at 0.02 mg/kg [3, 15]: 16.3%

Structure (SMILES): CCCC[C@H](C)C[C@H](O)/C=C/[C@@H]1[C@H]2CC(CC/C=C/C(=O)OC)O[C@H]2C[C@H]1O (stereo partly drawn) [Compound 7, 17S,20-dimethyl-trans-Δ^2-6RS-PGI1 methyl ester]
- inhibition in vivo at 1 mg/kg [3, 12]: 58%
- inhibition in vivo at 1 mg/kg [3, 13]: 42.7%

Structure (SMILES): CCCC[C@H](C)C[C@H](O)/C=C/[C@@H]1[C@H]2C[C@H](CCCCC(=O)CO)O[C@H]2C[C@H]1O [Compound 9, 2-decarboxy-2-glycoloyl-17S,20-dimethyl-6S-PGI1]
- LD50 at 336 h [5]: > 50 mg/kg
- inhibition in vivo at 0.5 mg/kg [3, 14]: 58.4%
- inhibition in vivo at 0.5 mg/kg [3, 15]: 51.4%

Structure (SMILES): CCCC[C@H](C)C[C@H](O)/C=C/[C@@H]1[C@H]2CC(CCCCC(=O)OC)=N[C@H]2C[C@H]1O [Compound 8, 17S,20-dimethyl-6,9α-nitrilo-PGI1 methyl ester]
- inhibition, GOT ([4]; 1000 μg/kg per administration): 68.7%
- inhibition, GPT ([4]; 1000 μg/kg per administration): 76.1%
- inhibition, bilirubin ([4]; 1000 μg/kg per administration): 45.8%
- LD50 at 336 h [5]: 40 to 100 mg/kg
- inhibition in vivo at 1 mg/kg [3, 12]: 41.1%
- inhibition in vivo at 1 mg/kg [3, 13]: 14.5%
- inhibition in vivo at 0.5 mg/kg [3, 14]: 65.6%
- inhibition in vivo at 0.5 mg/kg [3, 15]: 58.6%
- inhibition rate, GOT 24 hr after ([6]; 1000 μg/kg per administration): 40.2%
- inhibition rate, GPT 24 hr after ([6]; 1000 μg/kg per administration): 32.6%
- inhibition rate, bilirubin 24 hr after ([6]; 1000 μg/kg per administration): 12.1%
- inhibition rate, GOT 48 hr after ([6]; 1000 μg/kg per administration): 57.2%
- inhibition rate, GPT 48 hr after ([6]; 1000 μg/kg per administration): 47.6%
- inhibition rate, bilirubin 48 hr after ([6]; 1000 μg/kg per administration): 11.5%

Structure (SMILES): CCCC[C@H](C)C[C@H](O)/C=C/[C@H]1[C@H](O)CC(=O)[C@@H]1CC(=O)CCCCC(=O)OC [Compound 2, 17S,20-dimethyl-6-oxo-PGE1 methyl ester]
- inhibition, GOT ([4]; 100 μg/kg per administration): 39.6%
- inhibition, GPT ([4]; 100 μg/kg per administration): 41.9%
- inhibition, bilirubin ([4]; 100 μg/kg per administration): 37.5%
- inhibition in vivo at 0.05 mg/kg [3, 12]: 61.5%
- inhibition in vivo at 0.05 mg/kg [3, 13]: 44.1%
- inhibition in vivo at 0.02 mg/kg [3, 14]: 37.9%
- inhibition in vivo at 0.02 mg/kg [3, 15]: 34.6%
- inhibition rate, GOT 24 hr after ([6]; 100 μg/kg per administration): 29.5%
- inhibition rate, GPT 24 hr after ([6]; 100 μg/kg per administration): 6.7%
- inhibition rate, bilirubin 24 hr after ([6]; 100 μg/kg per administration): 24.2%
- inhibition rate, GOT 48 hr after ([6]; 100 μg/kg per administration): 32.7%
- inhibition rate, GPT 48 hr after ([6]; 100 μg/kg per administration): 23.5%
- inhibition rate, bilirubin 48 hr after ([6]; 100 μg/kg per administration): 34.6%

Structure (SMILES): CCCCC[C@H](O)/C=C/[C@@H]1[C@H]2C/C(=C/CCCC(=O)O)O[C@H]2C[C@H]1O [PGI2, (5Z,13E)-(9α,11α,15S)-6,9-epoxy-11,15-dihydroxyprosta-5,13-dienoic acid]
- effect on hypoxia in the isolate perfused cat liver [7]: prevents and is useful in treating
- effect on ischemic myocardial tissue [8]: prevents and is useful in treating
- effect on endotoxin shock [9]: prevents and is useful in treating
- effect on endotoxin-induced lung injury [10]: prevents and is useful in treating

Structure (SMILES): O=C(CO)CCCC[C@H]1C[C@@H]2[C@@H](/C=C/[C@@H](O)C3CCCC3)[C@H](O)C[C@@H]2O1 [Compound 10, 2-decarboxy-2-glycoloyl-15-cyclopentyl-16,17,18,19,20-pentanor-6S-PGI]
- inhibition in vivo at 1 mg/kg [3, 14]: 11.8%
- inhibition in vivo at 1 mg/kg [3, 15]: 0%

Structure (SMILES): CCCC[C@H](C)C[C@H](O)/C=C/[C@@H]1[C@H]2C[C@H](CCCCCO)O[C@H]2C[C@H]1O [Compound 11, 17S,20-dimethyl-6S-PGI1 alcohol]
- LD50 at 336 h [5]: > 50 mg/kg
- inhibition in vivo at 0.5 mg/kg [3, 14]: 73.3%
- inhibition in vivo at 0.5 mg/kg [3, 15]: 65.2%

Structure (SMILES): CCCC1CCC(C(O)/C=C/[C@@H]2[C@H]3CC(CCCCCO)=N[C@H]3C[C@H]2O)C1 (single isomer, unassigned) [Compound 13, 15-(3-propylcyclopentyl)-16,17,18,19,20-pentanor-6,9α-nitrilo-PGI1 alcohol]
- inhibition in vivo at 1 mg/kg [3, 12]: 53.6%
- inhibition in vivo at 1 mg/kg [3, 13]: 58.2%

Structure (SMILES): CCCCC[C@H](O)/C=C/[C@H]1[C@H](O)CC(=O)[C@@H]1C/C=C\CCCC(=O)O [PGE2]
- effect against diet-induced acute pancreatitis [11]: effective

Structure (SMILES): CCCCC[C@](C)(O)/C=C/[C@H]1[C@H](O)CC(=O)[C@@H]1CC(=O)CCCCC(=O)O [Compound 3, 15S-methyl-6-oxo-PGE1]
- inhibition in vivo at 0.1 mg/kg [3, 12]: 6.8%
- inhibition in vivo at 0.1 mg/kg [3, 13]: 13.2%
